Read-outs that look alike come from different tables or passages of the source.
Experiments:
[1] = system: AP-1 (p1168(κBmut)IL6P-luc+); assay type: cell-based, mouse; details: 60 nM STS
oestrus cycle = details: rats; cited from earlier work
[2] = system: NF-κB reporter p(IL6-κB)350hu.IL6P-luc+, GR dependence; assay type: cell-based, human; details: mock DNA versus pSVhGRα, 2000 IU/ml TNF
JNK p46 and p54 = assay: MAPK activation assay (phospho-specific Western blot), JNK, L929sA cells; assay type: cell-based, mouse; details: 2000 IU/ml TNF 15 minutes
[3] = system: NF-κB DNA-binding activity (IL-6 NF-κB response element); assay: EMSA of NF-κB DNA-binding activity in L929sA cells; assay type: cell-based, mouse; details: all concentrations indicated, added 2 h before TNF (2000 IU/ml), total 4 h
[4] = system: endogenous murine IL-6 production; assay: Murine IL-6 ELISA on supernatant of TNF-induced L929sA cells; assay type: cell-based, mouse; details: 1 μM and 10 μM, 2000 IU/ml TNF, 8 h
[5] = Stability of the compound on storage and in solution; assay type: physicochemical; details: solid, storage
Source text: The invention further relates to compositions, preferably pharmaceutical compositions, comprising as an active ingredient at least one of the compounds as defined in formula (I) together with (pharmaceutically) acceptable excipients. […] The preferred compound exerting this activity is 2(4-acetoxyphenyl)-2-chloro-N-methyl-ethylammonium chloride and has a molecular weight of 264.14.

[6] = system: IL-6 promoter (p1168hu.IL6P-luc+); assay type: cell-based, mouse; details: added 2 h before 2000 IU/ml TNF, total 8 h
[7] = system: NF-κB (p(IL6κB)350hu.IL6P-luc+); assay type: cell-based, mouse; details: 0.1, 1 or 10 μM CpdA compared with 1 μM DEX, 2000 IU/ml TNF
[8] = system: GRE-driven promoter (p(GRE)2-50-luc+); assay type: cell-based, mouse
[9] = system: NF-κB (p1168(AP-1mut)IL6P-luc+); assay type: cell-based, mouse; details: 2000 IU/ml TNF
[10] = system: Gal4-p65 chimeric protein; assay: Gal4-p65 transactivation of p(Gal)2-50hu.IL6P-luc+ in L929sA cells; assay type: cell-based, mouse
[11] = kept in solution (especially at pH5 and above); cited from earlier work
[12] = system: E-selectin promoter (pE-selectin-Luc); assay type: cell-based, mouse; details: 2000 IU/ml TNF
pNF-κB-Luc = assay: TNF-activated pNF-κB-Luc (E1B TATA) in HEK293T cells; assay type: cell-based, human; details: 2000 IU/ml TNF
[13] = system: NF-κB DNA-binding activity (IL-6 NF-κB response element); details: L929sA cells, previously demonstrated; cited from earlier work

CNCC(Cl)c1ccc(OC(C)=O)cc1.Cl (stereo not shown) [CpdA, 2-(4-acetoxyphenyl)-2-chloro-N-methyl-ethylammonium chloride]
inhibition of STS-induced AP-1-mediated transactivation ([1]; 0.1, 1 and 10 μM): capable of inhibiting the STS-induced transactivation | effect on oestrus cycle (oestrus cycle): disrupts the oestrus cycle of rats | repression of TNF-activated p(IL6-κB)350hu.IL6P-luc+ ([2]; 10 μM): only when GR is present | effect on amount of phosphorylated (activated) JNK (JNK p46 and p54; 1 or 10 μM for 2 h): does not affect the amount of activated JNK p46 and p54 | effect on NF-κB DNA-binding activity [3]: no change of NF-κB DNA-binding activity is observed | lowering of TNF-induced IL-6 protein levels [4]: able to efficiently lower these TNF-induced levels | hygroscopicity and light sensitivity [5]: hygroscopic and sensitive to light | inhibition of TNF induction of p1168hu.IL6P-luc+ (relative luciferase induction factor) ([6]; 0.1 μM): downmodulatory effect | inhibition of TNF induction of p1168hu.IL6P-luc+ (relative luciferase induction factor) ([6]; 1 μM): lowers the relative luciferase induction factor to almost the same extent as 1 μM DEX | inhibition of TNF-activated p(IL6κB)350hu.IL6Pluc+ [7]: inhibits, to a similar extent as DEX | transactivation of p(GRE)2-50-luc+ ([8]; 0.1 and 10 μM, 8 h): lack of activity | effect on DEX-induced p(GRE)2-50-luc+ transactivation ([8]; CpdA together with 1 μM DEX): competition for GR molecules present in the cell | inhibition of TNF-induced NF-κB-mediated transactivation of p1168(AP-1mut)IL6P-luc+ ([9]; 1 μM and 10 μM): capable of significantly inhibiting the TNF-induced promoter activity | inhibition of the activity of Gal4p65 ([10]; 10 μM): able to halfmaximally inhibit the activity of Gal4p65 | stability in solution [11]: starts to cyclise to the corresponding aziridine | inhibition of TNF-induced pE-selectin-luc+ ([12]; 1 μM): also effective, though to a lesser extent | inhibition of TNF-induced pE-selectin-luc+ ([12]; 10 μM): inhibits the TNF-activated reporter to the same extent as 1 μM DEX, i.e. to background levels | repression of TNF-activated pNF-κB-Luc (pNF-κB-Luc; 10 μM): not able to mediate repression of pNF-κB-Luc

C[C@@H]1C[C@H]2[C@@H]3CCC4=CC(=O)C=C[C@]4(C)[C@@]3(F)[C@@H](O)C[C@]2(C)[C@@]1(O)C(=O)CO [DEX, Dexamethasone, reference compound]
inhibition of STS-induced AP-1-mediated transactivation ([1]; 1 μM): efficiently inhibits the AP-1-mediated transactivation | effect on NF-κB DNA-binding capacities [13]: without affecting the DNA-binding capacities of NF-κB | repression of TNF-activated p(IL6-κB)350hu.IL6P-luc+ ([2]; 1 μM): only when GR is present | effect on amount of phosphorylated (activated) JNK (JNK p46 and p54; 1 μM for 2 h): able to inhibit the amount of phosphorylated JNK | inhibition of TNF induction of p1168hu.IL6P-luc+ (relative luciferase induction factor) ([6]; 1 μM): efficiently be inhibited | transactivation of p(GRE)2-50-luc+ (induction factor) ([8]; 1 μM, 8 h): at least 8 fold | inhibition of TNF-induced NF-κB-mediated transactivation of p1168(AP-1mut)IL6P-luc+ ([9]; 1 μM): efficiently inhibit this NF-κB-mediated transactivation | inhibition of the activity of Gal4p65 ([10]; 1 μM): able to halfmaximally inhibit the activity of Gal4p65 | inhibition of TNF-induced pE-selectin-luc+ ([12]; 1 μM): to background levels | repression of TNF-activated pNF-κB-Luc (pNF-κB-Luc; 1 μM): not able to mediate repression of pNF-κB-Luc

From US7053120B2, “Use of carboxy compounds such as 2(4-acetoxyphenyl)2-chloro-N-methyl-ethylammonium chloride as anti-inflammatory agents” (priority 1999, dated 2006)
